According to patent US20060246095A1, “Multiepitope polypeptides for cancer immunotherapy” (HADASIT MEDICAL RESEARCH SERVICES & DEVELOPMENT LTD., priority 2003, published 2006):

Key:
specific T cell clones = test: Recognition assay for peptide presentation by DC, statements on T cell clones overall; assay type: cell-based, human; conditions: MEP-transfected DC, Lactacystin 25 μM and 50 μM
Description: (§1) T cell clones were co-incubated with DC in flat 96-well plate for 24 hours. DC were plated immediately after their transfection or pulsing in 6 separated plates, in the presence of GM CSF and IL-4. 1×10^5 T cells were added to 1×10^5 pulsed or transfected DC. In the longitudinal study, T cell clones were added to the transfected/pulsed DC at the following time points: T0=immediately, +12=after 12 hours, 24, 36, 48 and 72 hours. Supernatants were collected after overnight incubation. Interferon gamma release assay was performed to evaluate T cell stimulation using the ELISA method, results are presented in pg/ml.
(§2) Lactacystin was added to DC at concentrations of 25 μM and 50 μM, 4 hours post transfection. DC were incubated with lactacystin for 70 minutes and then washed twice.
(§3) Responding T cells were added after washing the lactacystin and co-incubated. Supernatents were collected after 20 hours.
Efficiency of epitope presentation and stimulation of specific T cell clone proliferation were evaluated by comparing the specific T cell clones response to the DC transfected with the multiepitope, to DC that were pulsed with specific peptides or DC transfected with full length melanoma associated antigens (gp100 and MART-1), using the recognition assay. […]

mice = conditions: cited from earlier work
[1] = tested on: peripheral blood lymphocytes of breast carcinoma patients; conditions: cited from earlier work
[2] = tested on: T cell clone CK3H6 (A2 restricted gp100 epitope 209-217); test: Recognition assay for peptide presentation by DC (IFN-γ release ELISA), T cell clone CK3H6; assay type: cell-based, human
Description: (§4) Dendritic cells were isolated from cytopheresis MNCs of melanoma patients with the HLA haplotypes HIA-A*0201 and HLA-DRβ1*0401. DC were generated from plastic adherent PBMCs cultured in RPMI with 10% human AB-serum, L-glutamine, penicillin-streptomycin, supplemented with GM-CSF 1000 IU/ml and IL-4 1000 IU/ml. By day 6, immature DC were harvested for electroporation.
(§5) 2.5-3×10^6 DC were re-suspended in 100 μl nucleofector solution and added to 5 μg of DNA plasmid in 2-mm electrode gap cuvettes. Transfected DC were immediately plated with CM containing GM/IL4 or let mature using TNFα 100 ng/ml and PGE2 1000 ng/ml. GFP-transfected DCs were collected 16-24 hours later for FACS analysis.
(§6) DC were pulsed with 1 μg/ml of the relevant peptides at 1×10^6 cells/ml. Stimulants were added after 1 hour incubation without washing the peptide.
CK3H6 which recognizes the A2 restricted gp100 epitope 209-217.
as §1, §2, §3
(§7) For recognition assay of DC epitope presentation, 1×10^5 cells from different T cell clones, that were grown from PBMCs of patients, and were restricted to particular melanoma antigen peptides, were co-incubated with 1×10^5 pulsed or transfected DC, in the presence of GM-CSF and IL-4. T cell clones were added to the transfected/pulsed DC at the following time points: T=0 immediately, T=12, 24, 36, 48, 72 hours. Supernatant was collected after overnight incubation and was subjected to interferon gamma release assay, in order to evaluate the specific T cell activity towards the particular peptide presented by the DC cells.
(§8) The results shown in the following tables represent the amount of Interferon-γ (pg/ml) secreted to the culture medium as an index for T cell stimulation.

[3] = tested on: TIL 1940 (A2 restricted MART-1 epitope 27-35); test: Recognition assay for peptide presentation by DC (IFN-γ release ELISA), TIL 1940; assay type: cell-based, human; conditions: TIL 1940
Description: as §4, §5, §6
TIL 1940 which recognizes the A2 restricted MART-1 epitope 27-35.
as §1, §2, §3, §7, §8

[4] = tested on: TIL 1383 (A2 restricted tyrosinase epitope 369-377); test: Recognition assay for peptide presentation by DC (IFN-γ release ELISA), TIL 1383; assay type: cell-based, human; conditions: control plate; peptide-pulsed DC; TIL 1383
Description: as §4, §5, §6
TIL 1383 which recognizes the A2 restricted tyrosinase epitope 369-377.
as §1, §2, §3, §7, §8

[5] = tested on: T cell clone RB-154 (gp100 154-162 peptide); test: Recognition assay for peptide presentation by DC (IFN-γ release ELISA), clone RB-154; assay type: cell-based, human; conditions: control plate; peptide-pulsed DC; clone RB-154
Description: as §4, §5, §6, §1, §7, §8

[6] = tested on: T cell clone BR-B8 (DR4-restricted gp100 epitope 44-59); test: Recognition assay for peptide presentation by DC (IFN-γ release ELISA), clone BR-B8; assay type: cell-based, human; conditions: control plate; peptide-pulsed DC; clone BR-B8
Description: as §4, §5
pcDNA-MEP and pcDNA-gp100 were co-transfected to detect Class II antigen presentation as an internal control.
BR-B8 which recognizes the DR4-restricted gp100 epitope 44-59.
as §1, §2, §3, §7, §8

[7] = tested on: DC with CM (no T cell clone); test: Recognition assay, CM in place of a T cell clone (IFN-γ background of DC); assay type: cell-based, human; conditions: transfected or peptide-pulsed DC, CM instead of T cell clone
Description: as §4, §5, §6, §1, §7, §8

MHC = conditions: cited from earlier work
HHD mice = conditions: HLA-A2.1-restricted; cited from earlier work
[8] = tested on: CTLs in blood lymphocytes of breast carcinoma patients; conditions: personal communications; cited from earlier work
[9] = control plate, peptide-pulsed DC, T cell clone CK3H6
[10] = transfected or peptide-pulsed DC, Donor 1, T = 12 hours, CK3H6
[11] = transfected or peptide-pulsed DC, Donor 1, T = 24 hours, CK3H6
[12] = transfected or peptide-pulsed DC, Donor 1, T = 36 hours, CK3H6
[13] = transfected or peptide-pulsed DC, Donor 1, T = 48 hours, CK3H6
[14] = transfected or peptide-pulsed DC, Donor 1, T = 72 hours, CK3H6
[15] = transfected or peptide-pulsed DC, Donor 2, T = 12 hours, CK3H6
[16] = transfected or peptide-pulsed DC, Donor 2, T = 24 hours, CK3H6
[17] = transfected or peptide-pulsed DC, Donor 2, T = 36 hours, CK3H6
[18] = transfected or peptide-pulsed DC, Donor 2, T = 48 hours, CK3H6
[19] = transfected or peptide-pulsed DC, Donor 2, T = 72 hours, CK3H6
[20] = control plate, peptide-pulsed DC
[21] = transfected or peptide-pulsed DC, Donor 1, T = 12 hours
[22] = transfected or peptide-pulsed DC, Donor 1, T = 24 hours
[23] = transfected or peptide-pulsed DC, Donor 1, T = 36 hours
[24] = transfected or peptide-pulsed DC, Donor 1, T = 48 hours
[25] = transfected or peptide-pulsed DC, Donor 1, T = 72 hours
[26] = transfected or peptide-pulsed DC, Donor 2, T = 12 hours
[27] = transfected or peptide-pulsed DC, Donor 2, T = 24 hours
[28] = transfected or peptide-pulsed DC, Donor 2, T = 36 hours
[29] = transfected or peptide-pulsed DC, Donor 2, T = 48 hours
[30] = transfected or peptide-pulsed DC, Donor 2, T = 72 hours

MHC, sequence (P61769 21-119): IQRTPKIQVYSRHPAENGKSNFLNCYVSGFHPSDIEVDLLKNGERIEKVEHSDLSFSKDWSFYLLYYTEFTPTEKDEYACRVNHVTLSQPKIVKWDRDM

Compound: CC(=O)N[C@@H](CSC(=O)[C@]1([C@@H](O)C(C)C)NC(=O)[C@H](C)[C@@H]1O)C(=O)O [Lactacystin]
- effect of proteasomal inhibition on epitope expression (specific T cell clones): decreased the epitope expression of MEP-Mel to background level

Compound: BA46-6: peptide BA46-6 (NLFETPVEA) of Lactadherin, SEQ ID NO: 27 (listed as Homo sapiens)
- specific CTL activity (mice): elicited specific CTL activity
- specific CTL activity [1]: elicited specific CTL activity

Compound: BA46-7: peptide BA46-7 (GLQHWVPEL) of Lactadherin, SEQ ID NO: 28 (listed as Homo sapiens)
- specific CTL activity (mice): elicited specific CTL activity
- specific CTL activity [1]: elicited specific CTL activity

Compound: MART-1 27-35: peptide 27-35 of MART-1, SEQ ID NO: 18
- Interferon-γ secreted to the culture medium [2, 9]: 1 pg/mL
- Interferon-γ secreted to the culture medium [2, 10]: 11 pg/mL
- Interferon-γ secreted to the culture medium [2, 11]: 6 pg/mL
- Interferon-γ secreted to the culture medium [2, 12]: 10 pg/mL
- Interferon-γ secreted to the culture medium [2, 13]: 0 pg/mL
- Interferon-γ secreted to the culture medium [2, 14]: 0 pg/mL
- Interferon-γ secreted to the culture medium [2, 15]: 10 pg/mL
- Interferon-γ secreted to the culture medium [2, 16]: 10 pg/mL
- Interferon-γ secreted to the culture medium [2, 17]: 8 pg/mL
- Interferon-γ secreted to the culture medium [2, 18]: 0 pg/mL
- Interferon-γ secreted to the culture medium [2, 19]: 0 pg/mL
- Interferon-γ secreted to the culture medium [3, 20]: >2000 pg/mL
- Interferon-γ secreted to the culture medium [3, 21]: 9 pg/mL
- Interferon-γ secreted to the culture medium [3, 22]: 435 pg/mL
- Interferon-γ secreted to the culture medium [3, 23]: 99 pg/mL
- Interferon-γ secreted to the culture medium [3, 24]: 0 pg/mL
- Interferon-γ secreted to the culture medium [3, 25]: 0 pg/mL
- Interferon-γ secreted to the culture medium [3, 26]: 448 pg/mL
- Interferon-γ secreted to the culture medium [3, 27]: 254 pg/mL
- Interferon-γ secreted to the culture medium [3, 28]: 49 pg/mL
- Interferon-γ secreted to the culture medium [3, 29]: 0 pg/mL
- Interferon-γ secreted to the culture medium [3, 30]: 0 pg/mL
- Interferon-γ secreted to the culture medium [4]: 1 pg/mL
- Interferon-γ secreted to the culture medium [5]: 1 pg/mL
- Interferon-γ secreted to the culture medium [6]: 1 pg/mL
- Interferon-γ secreted to the culture medium ([7]; Donor 1, T = 12 hours): 10 pg/mL
- Interferon-γ secreted to the culture medium ([7]; Donor 1, T = 48 hours): 0 pg/mL
- Interferon-γ secreted to the culture medium ([7]; Donor 1, T = 72 hours): 0 pg/mL
- Interferon-γ secreted to the culture medium ([7]; Donor 2, T = 12 hours): 9 pg/mL
- Interferon-γ secreted to the culture medium ([7]; Donor 2, T = 24 hours): 7 pg/mL
- Interferon-γ secreted to the culture medium ([7]; Donor 2, T = 36 hours): 8 pg/mL
- Interferon-γ secreted to the culture medium ([7]; Donor 2, T = 48 hours): 0 pg/mL
- Interferon-γ secreted to the culture medium ([7]; Donor 2, T = 72 hours): 0 pg/mL

Compound: MUC1/A7: peptide A7 (NLTISDVSV) of MUC1, SEQ ID NO: 26 (listed as Homo sapiens)
- MHC-binding affinity (MHC): high
- CTL induced upon vaccination, lysis of human carcinoma lines (HHD mice): effectively lysed the human carcinoma lines
- activation of CTLs in blood lymphocytes, patients responding [8]: 2/4

Compound: MUC1/D6: peptide D6 (LLLTVLTVV) of MUC1, SEQ ID NO: 25 (listed as Homo sapiens)
- MHC-binding affinity (MHC): high
- CTL induced upon vaccination, lysis of human carcinoma lines (HHD mice): effectively lysed the human carcinoma lines
- activation of CTLs in blood lymphocytes, patients responding [8]: 3/4

Compound: TYR 369-377: peptide 369-377 derived from Tyrosinase, SEQ ID NO: 17
- Interferon-γ secreted to the culture medium [2, 9]: 1 pg/mL
- Interferon-γ secreted to the culture medium [3, 20]: 1 pg/mL
- Interferon-γ secreted to the culture medium [4]: 69 pg/mL
- Interferon-γ secreted to the culture medium [5]: 0 pg/mL
- Interferon-γ secreted to the culture medium [6]: 1 pg/mL

Compound: gp 100 154-162: peptide 154-162 of gp100, SEQ ID NO: 24
- Interferon-γ secreted to the culture medium [2, 9]: 7 pg/mL
- Interferon-γ secreted to the culture medium [3, 20]: 6 pg/mL
- Interferon-γ secreted to the culture medium [4]: 6 pg/mL
- Interferon-γ secreted to the culture medium [5]: >2000 pg/mL
- Interferon-γ secreted to the culture medium [6]: 1 pg/mL

Compound: gp 100 209-217: peptide 209-217 of gp100, SEQ ID NO: 16
- Interferon-γ secreted to the culture medium [2, 9]: >2000 pg/mL
- Interferon-γ secreted to the culture medium [2, 10]: >2000 pg/mL
- Interferon-γ secreted to the culture medium [2, 11]: 31 pg/mL
- Interferon-γ secreted to the culture medium [2, 12]: 12 pg/mL
- Interferon-γ secreted to the culture medium [2, 13]: 0 pg/mL
- Interferon-γ secreted to the culture medium [2, 14]: 0 pg/mL
- Interferon-γ secreted to the culture medium [2, 15]: >2000 pg/mL
- Interferon-γ secreted to the culture medium [2, 16]: 18 pg/mL
- Interferon-γ secreted to the culture medium [2, 17]: 11 pg/mL
- Interferon-γ secreted to the culture medium [2, 18]: 0 pg/mL
- Interferon-γ secreted to the culture medium [2, 19]: 0 pg/mL
- Interferon-γ secreted to the culture medium [3, 20]: 1 pg/mL
- Interferon-γ secreted to the culture medium [3, 21]: 10 pg/mL
- Interferon-γ secreted to the culture medium [3, 22]: 1 pg/mL
- Interferon-γ secreted to the culture medium [3, 23]: 13 pg/mL
- Interferon-γ secreted to the culture medium [3, 24]: 0 pg/mL
- Interferon-γ secreted to the culture medium [3, 25]: 0 pg/mL
- Interferon-γ secreted to the culture medium [3, 26]: 12 pg/mL
- Interferon-γ secreted to the culture medium [3, 27]: 6 pg/mL
- Interferon-γ secreted to the culture medium [3, 28]: 7 pg/mL
- Interferon-γ secreted to the culture medium [3, 29]: 0 pg/mL
- Interferon-γ secreted to the culture medium [3, 30]: 0 pg/mL
- Interferon-γ secreted to the culture medium [4]: 1 pg/mL
- Interferon-γ secreted to the culture medium [5]: 1 pg/mL
- Interferon-γ secreted to the culture medium [6]: 1 pg/mL
- Interferon-γ secreted to the culture medium ([7]; Donor 1, T = 12 hours): 9 pg/mL
- Interferon-γ secreted to the culture medium ([7]; Donor 1, T = 48 hours): 0 pg/mL
- Interferon-γ secreted to the culture medium ([7]; Donor 1, T = 72 hours): 0 pg/mL
- Interferon-γ secreted to the culture medium ([7]; Donor 2, T = 12 hours): 8 pg/mL
- Interferon-γ secreted to the culture medium ([7]; Donor 2, T = 24 hours): 6 pg/mL
- Interferon-γ secreted to the culture medium ([7]; Donor 2, T = 36 hours): 8 pg/mL
- Interferon-γ secreted to the culture medium ([7]; Donor 2, T = 48 hours): 0 pg/mL
- Interferon-γ secreted to the culture medium ([7]; Donor 2, T = 72 hours): 0 pg/mL
